Source: patent US10000474B2, “Histone deacetylase inhibitors and uses thereof” (MUSC FOUNDATION FOR RESEARCH DEVELOPMENT, priority 2014, dated 2018)
Counter-ions that a name gives are not always drawn.

Columns and labels:
Recombinant human HDAC10 = target: T1, Recombinant human HDAC10 (Homo sapiens, UniProt Q969S8); assay: HDAC inhibitory assay, HDAC10 (Boc-Lys(Ac)-AMC substrate); format: biochemical; settings: test concentration not given; average of triplicate
T1 construct: purchased BPS Biosciences
T1 sequence (Q969S8 1-669): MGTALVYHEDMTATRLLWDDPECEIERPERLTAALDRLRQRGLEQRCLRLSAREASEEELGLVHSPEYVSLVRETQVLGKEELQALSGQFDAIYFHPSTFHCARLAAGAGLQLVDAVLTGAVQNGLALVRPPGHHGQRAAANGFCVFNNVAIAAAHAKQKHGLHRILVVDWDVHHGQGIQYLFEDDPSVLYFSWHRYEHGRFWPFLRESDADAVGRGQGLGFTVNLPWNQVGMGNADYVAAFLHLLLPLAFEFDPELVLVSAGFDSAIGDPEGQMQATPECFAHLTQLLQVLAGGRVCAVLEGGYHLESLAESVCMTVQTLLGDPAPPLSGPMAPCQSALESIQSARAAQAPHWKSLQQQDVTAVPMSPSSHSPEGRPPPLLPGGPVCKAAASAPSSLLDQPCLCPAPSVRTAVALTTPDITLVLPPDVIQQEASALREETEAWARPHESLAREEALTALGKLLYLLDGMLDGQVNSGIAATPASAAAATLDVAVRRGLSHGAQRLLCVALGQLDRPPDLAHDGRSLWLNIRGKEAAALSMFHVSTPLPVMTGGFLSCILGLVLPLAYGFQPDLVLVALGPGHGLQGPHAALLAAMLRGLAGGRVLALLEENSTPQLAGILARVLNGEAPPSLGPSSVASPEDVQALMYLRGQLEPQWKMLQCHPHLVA
Method: The compounds of Examples 1-12 and 14-16 were evaluated for their ability to act as inhibitors of human HDAC. The compound of Example 13 was not tested. Recombinant human HDAC1, HDAC2, HDAC3/NcoR2, HDAC5, HDAC6, HDAC8, HDAC9, HDAC10 and HDAC11 were purchased from BPS Biosciences. Recombinant human HDAC4 and HDAC7 were purchased from Millipore. The substrate Boc-Lys(Ac)-AMC and Boc-Lys(Tfa)-AMC were purchased from Bachem. The substrate Ac-RHK(Ac)K(Ac)-AMC was purchased from Enzo Life Sciences. Due to the different specific activities of each isoform, different amount of enzyme was used in each isoform screening assay. In these assays, trichostatin A (TSA), suberanilohydroxamic acid and diphenylacetohydroxamic acid (DPAHA) were employed as positive controls. All determinations were carried out in triplicate, and reported values were the average of these determinations, which in no case varied by more than 5%.
Then 25 μl of the Boc-Lys(Ac)-AMC substrate (50 μM final concentration) was added and incubated at 37° C. for 30-60 min, and followed by adding 50 μl of developer (1 mg/ml trypsin and 1 μM TSA). The last step was reading the samples in a SpectraMax M5 plate reader (Molecular Devices) at an excitation wavelength of 360 nm and an emission wavelength of 460 nm.

[1] = Cell proliferation assay (MTS, cytotoxicity); format: cell-based; settings: human; cell line not given (MV4-11 24 hours or MCF-7 72 hours); 1 μM to 100 μM; average of triplicate
Method: The cytotoxicity of representative compounds of the invention was determined by MTS assay, following the protocol of CellTiter 96® AQueous Non-Radioactive Cell Proliferation Assay (Promega). The cells used in this assay were MV4-11 (human, macrophage, biphenotypic B myelomonocytic leukemia) and MCF-7 (human, epithelial, adenocarcinoma). […] The MV-4-11 cells were incubated with the representative compounds for 24 hours at 37° C. in 5% CO2 while the MCF-7 cells were first seeded on the 96-well plate and were allowed to attach for 1 day and then were incubated with different concentrations of the representative compound for 72 hours at 37° C. in 5% CO2. After 24 or 72 hours 20 μl of MTS reagent solution was added into each well and the cells were incubated for another 4 hours at 37° C. under 5% CO2 environment. The absorbance was measured at 490 nm in a SpectraMax M5 plate reader (Molecular Devices) to determine the cell viability. The absorbance was directly proportional to the amount of viable cells. All determinations were carried out in triplicate, and reported values in Table 2 below were the average of these determinations, which in no case varied by more than 5%.

Row | Structure (SMILES) | HDAC 10 inhibitory activity (Recombinant human HDAC10) | melting point | IC50 [1]
1 | O=C(Nc1ccccc1)c1coc(-c2ccccc2O)n1 [Example 1, 2-(2-Hydroxyphenyl)-N-phenyloxazole-4-carboxamide] | 48.8% | 173 to 174 °C | 25 µM
2 | O=C(NC(c1ccccc1)c1ccccc1)c1coc(-c2ccccc2O)n1 [Example 2, N-Benzhydryl-2-(2-hydroxyphenyl)oxazole-4-carboxamide] | 47.1% | 226 to 227 °C | 7.6 µM
3 | O=C(NCC(c1ccccc1)c1ccccc1)c1coc(-c2ccccc2O)n1 [Example 3, N-(2,2-Diphenylethyl)-2-(2-hydroxyphenyl)oxazole-4-carboxamide] | 35.7% | 206 to 208 °C | 40 µM
4 | O=C(NCCC(c1ccccc1)c1ccccc1)c1coc(-c2ccccc2O)n1 [Example 4, N-(3,3-Diphenylpropyl)-2-(2-hydroxyphenyl)oxazole-4-carboxamide] | 69.8% | – | –
5 | O=C(Nc1ccc(-c2ccccc2)cc1)c1coc(-c2ccccc2O)n1 [Example 5, N-([1,1′-Biphenyl]-4-yl)-2-(2-hydroxyphenyl)oxazole-4-carboxamide] | 58.6% | 218 to 219 °C | –
6 | O=C(NCc1ccc(-c2ccccc2)cc1)c1coc(-c2ccccc2O)n1 [Example 6, N-([1,1′-Biphenyl]-4-ylmethyl)-2-(2-hydroxyphenyl)oxazole-4-carboxamide] | 48.7% | 220 to 221 °C | > 100 µM
7 | O=C(NCc1cccc2ccccc12)c1coc(-c2ccccc2O)n1 [Example 7, 2-(2-Hydroxyphenyl)-N-(naphthalen-1-ylmethyl)oxazole-4-carboxamide] | 44.5% | – | –
8 | O=C(NCCc1c[nH]c2ccccc12)c1coc(-c2ccccc2O)n1 [Example 8, N-(2-(1H-Indol-3-yl)ethyl)-2-(2-hydroxyphenyl)oxazole-4-carboxamide] | 44.8% | – | –
9 | O=C(NCCCCN1C(=O)c2ccccc2C1=O)c1coc(-c2ccccc2O)n1 [Example 9, N-(4-(1,3-Dioxoisoindolin-2-yl)butyl)-2-(2-hydroxyphenyl)oxazole-4-carboxamide] | 32.1% | – | –

Continued, in another order:

Row | HDAC 10 inhibitory activity (Recombinant human HDAC10) | melting point | Structure (SMILES) | IC50 [1]
10 | 56.5% | – | O=C(NCCCCNC(=O)C(c1ccccc1)c1ccccc1)c1coc(-c2ccccc2O)n1 [Example 10, N-(4-(2,2-Diphenylacetamido)butyl)-2-(2-hydroxyphenyl)oxazole-4-carboxamide] | –
11 | 91.2% | – | O=C(NCCCCNC(=S)NCCC(c1ccccc1)c1ccccc1)c1coc(-c2ccccc2O)n1 [Example 11, N-(4-(3-(3,3-Diphenylpropyl)thioureido)butyl)-2-(2-hydroxyphenyl)oxazole-4-carboxamide] | –
12 | 26.2% | – | O=C(NCCCCNCCC(c1ccccc1)c1ccccc1)c1coc(-c2ccccc2O)n1 [Example 12, N-(4-((3,3-Diphenylpropyl)amino)butyl)-2-(2-hydroxyphenyl)oxazole-4-carboxamide hydrochloride] | –
13 | 47.2% | 248 to 251 °C | O=C(O)c1ccc(CNC(=O)c2coc(-c3ccccc3O)n2)cc1 [Example 14, 4-((2-(2-Hydroxyphenyl)oxazole-4-carboxamido)methyl)benzoic acid] | –
14 | 56.3% | – | O=C(Nc1ccccc1)c1ccc(CNC(=O)c2coc(-c3ccccc3O)n2)cc1 [Example 15, 2-(2-Hydroxyphenyl)-N-(4-(phenylcarbamoyl)benzyl)oxazole-4-carboxamide] | –
15 | 54.7% | – | O=C(CNC(=O)c1coc(-c2ccccc2O)n1)Nc1ccccc1 [Example 16, 2-(2-Hydroxyphenyl)-N-(2-oxo-2-(phenylamino)ethyl)oxazole-4-carboxamide] | –
